# Test system: HUVECs
# Test: Matrigel tube formation assay
# Assay type: cell-based, human
# Settings: HUVECs on Matrigel, six hours; PEP 2.5×10^11 vesicles/mL, VEGF 100 ng/ml
# Procedure: 96-well plates (Corning, Inc., Corning, NY) were pre-coated with MATRIGEL (Corning Life Sciences, Corning, NY) and allowed to solidify for one hour at 37° C. before cell seeding. GFP-tagged HUVECs (1×10^4 cells/well) were then added to individual wells in medium designated treatment. Images were acquired at time 0, one hour, three hours, and six hours post-treatment with an inverted microscope (DMI6000 B, Leica Microsystems GmbH, Wetzlar, Germany). All images were analyzed with Angiotool (Zudaire et al., 2011, PLoS One 6:e27385).
substance,measurement,value
VEGF,number of junctions per field,59.75
same,total length of branches per field,2459.59 pixels

# From patent publication US20260284113A1, “COMPOSITIONS AND METHODS FOR TREATING PERIPHERAL VASCULAR DISEASE” (MAYO FOUNDATION FOR MEDICAL EDUCATION AND RESEARCH, priority 2022, published 2026)
